Among the data in patent US9890153B2, “Substituted 1H-pyrrolo [2, 3-b] pyridine and 1H-pyrazolo [3, 4-b] pyridine derivatives as salt inducible kinase 2 (SIK2) inhibitors” (Arrien Pharmaceuticals LLC, priority 2012, dated 2018) are IC50 values, retold here.

Holding throughout (format): biochemical
For one assay, the target named is T1, SIK1 (SEQ ID NO: 10) (Homo sapiens, UniProt P57059).
T1 construct: Reaction Biology Corporation (assay service, HotSpot panel)
The assay can be described thus: Protein kinase assay, SIK1. To be noted: read-out: SIK1 (SEQ ID NO: 10) kinase inhibition result. How it is done:
(§1) Briefly, specific kinase/substrate pairs along with required cofactors were prepared in reaction buffer; 20 mM Hepes (pH 7.5), 10 mMmgCl2, 1 mM EGTA, 0.02% Brij35, 0.02 mg/ml BSA, 0.1 mM Na3VO4, 2 mM DTT, 1% DMSO. Compounds were delivered into the reaction, followed ˜20 min later by addition of a mixture of ATP (Sigma) and 33P ATP (PerkinElmer) to a final concentration of 10 μM. […] IC50 values and curve fits were obtained using Prism (GraphPad Software). Kinome tree representations were prepared using Kinome Mapper (http://www.reactionbiology.com/apps/kinome/mapper/LaunchKinome.htm).

The target in assay [1] is T2, SIK3 (QSK) (SEQ ID NO: 24) (Homo sapiens, UniProt Q9Y2K2).
T2 construct: Reaction Biology Corporation (assay service, HotSpot panel)
T2 sequence (Q9Y2K2 whole entry): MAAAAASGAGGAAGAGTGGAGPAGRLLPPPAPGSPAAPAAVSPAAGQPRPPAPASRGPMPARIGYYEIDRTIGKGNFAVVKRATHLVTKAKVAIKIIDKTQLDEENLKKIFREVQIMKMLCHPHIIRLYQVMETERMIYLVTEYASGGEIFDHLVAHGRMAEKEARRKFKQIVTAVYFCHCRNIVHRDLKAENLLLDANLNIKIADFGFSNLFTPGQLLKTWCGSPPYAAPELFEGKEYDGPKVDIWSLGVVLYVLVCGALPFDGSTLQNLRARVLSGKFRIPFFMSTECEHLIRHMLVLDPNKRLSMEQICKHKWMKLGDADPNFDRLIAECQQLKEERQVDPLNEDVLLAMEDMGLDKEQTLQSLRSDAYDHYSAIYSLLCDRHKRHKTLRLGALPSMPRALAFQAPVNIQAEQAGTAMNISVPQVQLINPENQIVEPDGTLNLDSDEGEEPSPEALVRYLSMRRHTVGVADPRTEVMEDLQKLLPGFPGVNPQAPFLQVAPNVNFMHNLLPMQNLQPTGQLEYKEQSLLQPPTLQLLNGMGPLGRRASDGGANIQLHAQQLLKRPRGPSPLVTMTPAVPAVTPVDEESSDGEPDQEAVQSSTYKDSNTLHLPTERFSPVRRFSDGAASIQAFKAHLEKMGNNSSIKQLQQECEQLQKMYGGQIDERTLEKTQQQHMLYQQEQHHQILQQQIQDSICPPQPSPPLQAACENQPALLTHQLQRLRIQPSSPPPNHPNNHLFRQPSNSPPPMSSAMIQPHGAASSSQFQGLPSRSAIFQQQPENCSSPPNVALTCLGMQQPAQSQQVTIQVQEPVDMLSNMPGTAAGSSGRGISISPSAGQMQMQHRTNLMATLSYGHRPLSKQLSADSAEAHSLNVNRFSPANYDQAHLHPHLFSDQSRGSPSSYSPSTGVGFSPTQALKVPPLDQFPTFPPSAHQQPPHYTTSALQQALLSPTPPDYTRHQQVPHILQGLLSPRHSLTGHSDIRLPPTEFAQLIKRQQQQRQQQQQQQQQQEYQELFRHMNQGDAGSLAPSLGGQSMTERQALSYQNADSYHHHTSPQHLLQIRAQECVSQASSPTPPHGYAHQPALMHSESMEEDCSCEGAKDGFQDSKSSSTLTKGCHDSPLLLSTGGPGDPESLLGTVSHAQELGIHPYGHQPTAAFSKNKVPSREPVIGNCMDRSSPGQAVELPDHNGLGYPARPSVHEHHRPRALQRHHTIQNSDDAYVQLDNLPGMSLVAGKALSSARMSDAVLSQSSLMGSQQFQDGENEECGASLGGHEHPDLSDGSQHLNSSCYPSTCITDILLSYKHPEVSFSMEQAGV
The assay can be described thus: Protein kinase assay, SIK3. Conditions: read-out: SIK3 (QSK) (SEQ ID NO: 24) kinase inhibition result. Here is the method: as §1

Assay [2] addresses SIK2 (QIK) (SEQ ID NO: 11) (Homo sapiens, UniProt Q9H0K1). Description: SIK2 kinase assay (radiometric, 10 μM ATP). To be noted: read-out: SIK2 (QIK) (SEQ ID NO: 11) kinase inhibition result. Here is the method: Procedure: Enzyme was incubated with substrate peptide in reaction buffer in the presence and absence of test compounds or Staurosporine. All additions were done on ice, followed by the addition of ATP mix. Wells were uniformly mixed using an Eppendorff plate shaker and incubated at 30° C. for 20 min, and stopped by the addition of 5 μL of 3% phosphoric acid. Volume was increased to 100 μL by adding 0.8% phosphoric acid which was then transferred to PC filter mats (Millipore), pre-equilibrated with 70% ethanol and water. Plates were washed thrice with 100 μL 0.8% phosphoric acid and dried for an hour at 60° C.

SIK2 (QIK) (SEQ ID NO: 11), sequence (Q9H0K1 whole entry): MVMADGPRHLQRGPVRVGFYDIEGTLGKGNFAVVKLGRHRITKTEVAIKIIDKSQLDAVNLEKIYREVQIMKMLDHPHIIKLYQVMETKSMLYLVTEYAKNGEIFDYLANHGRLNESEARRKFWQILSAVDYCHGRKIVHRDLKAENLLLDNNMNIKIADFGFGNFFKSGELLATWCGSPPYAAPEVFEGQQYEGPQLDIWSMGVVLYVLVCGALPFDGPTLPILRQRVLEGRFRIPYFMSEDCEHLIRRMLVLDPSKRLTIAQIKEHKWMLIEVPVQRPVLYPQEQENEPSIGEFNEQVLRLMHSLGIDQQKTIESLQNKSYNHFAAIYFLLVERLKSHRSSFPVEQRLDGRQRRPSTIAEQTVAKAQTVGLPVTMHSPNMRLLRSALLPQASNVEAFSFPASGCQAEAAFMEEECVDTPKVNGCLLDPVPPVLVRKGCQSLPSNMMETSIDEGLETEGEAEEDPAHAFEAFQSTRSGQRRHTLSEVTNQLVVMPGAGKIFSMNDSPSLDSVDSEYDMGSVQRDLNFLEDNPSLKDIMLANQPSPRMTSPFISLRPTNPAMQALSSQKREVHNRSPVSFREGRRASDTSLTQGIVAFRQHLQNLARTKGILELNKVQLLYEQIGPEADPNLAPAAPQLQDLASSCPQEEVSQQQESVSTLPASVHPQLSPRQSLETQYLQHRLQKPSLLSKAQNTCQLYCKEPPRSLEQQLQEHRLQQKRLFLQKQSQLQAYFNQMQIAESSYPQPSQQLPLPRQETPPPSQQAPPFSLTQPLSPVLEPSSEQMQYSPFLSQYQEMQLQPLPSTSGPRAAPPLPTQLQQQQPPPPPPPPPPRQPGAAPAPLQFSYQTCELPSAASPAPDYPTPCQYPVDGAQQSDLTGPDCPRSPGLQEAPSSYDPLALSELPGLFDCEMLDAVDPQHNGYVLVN
T1 sequence (P57059 whole entry): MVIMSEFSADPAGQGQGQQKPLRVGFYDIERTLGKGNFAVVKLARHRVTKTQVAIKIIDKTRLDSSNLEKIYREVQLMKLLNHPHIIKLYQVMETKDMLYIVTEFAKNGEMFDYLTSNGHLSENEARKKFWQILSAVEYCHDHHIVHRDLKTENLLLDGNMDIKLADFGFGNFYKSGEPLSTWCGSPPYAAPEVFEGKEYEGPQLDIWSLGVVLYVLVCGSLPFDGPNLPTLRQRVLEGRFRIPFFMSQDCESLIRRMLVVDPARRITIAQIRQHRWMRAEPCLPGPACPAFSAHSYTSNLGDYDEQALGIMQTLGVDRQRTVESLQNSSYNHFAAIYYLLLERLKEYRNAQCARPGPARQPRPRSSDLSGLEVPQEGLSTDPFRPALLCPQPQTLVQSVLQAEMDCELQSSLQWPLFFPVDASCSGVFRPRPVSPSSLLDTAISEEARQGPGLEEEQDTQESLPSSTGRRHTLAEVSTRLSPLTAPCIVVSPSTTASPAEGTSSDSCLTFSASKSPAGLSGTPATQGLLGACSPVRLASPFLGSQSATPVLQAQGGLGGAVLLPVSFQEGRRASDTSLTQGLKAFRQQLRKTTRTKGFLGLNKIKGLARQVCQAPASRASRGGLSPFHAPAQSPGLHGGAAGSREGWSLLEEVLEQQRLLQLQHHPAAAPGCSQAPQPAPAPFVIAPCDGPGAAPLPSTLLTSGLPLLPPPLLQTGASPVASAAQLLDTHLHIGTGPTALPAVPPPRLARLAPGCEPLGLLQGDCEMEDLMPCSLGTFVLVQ

On to `Fc1ccc(-c2n[nH]c3nccc(-c4ccsc4)c23)c(F)c1` [Example 2, 3-(2,4-difluorophenyl)-4-(thiophen-3-yl)-1H-pyrazolo[3,4-b]pyridine], for which the values for the IC50 (on SIK1 (SEQ ID NO: 10); in assay [1]; in assay [2]) were greater than 1 µM, greater than 1 µM and greater than 0.1 µM, respectively.

As to `CCOc1ccccc1-c1n[nH]c2nccc(-c3ccsc3)c12` [Example 5, 3-(2-ethoxyphenyl)-4-(thiophen-3-yl)-1H-pyrazolo[3,4-b]pyridine], the values for the IC50 (on SIK1 (SEQ ID NO: 10); in assay [1]; in assay [2]) were greater than 1 µM, less than 0.1 µM and greater than 0.1 µM, respectively.

Consider `COc1cc(Cl)ccc1-c1n[nH]c2nccc(-c3ccsc3)c12` [Example 6, 3-(4-chloro-2-methoxyphenyl)-4-(thiophen-3-yl)-1H-pyrazolo[3,4-b]pyridine], for which the IC50 on SIK1 (SEQ ID NO: 10) was greater than 0.1 µM; in assay [1], greater than 1 µM; in assay [2] it was greater than 0.1 µM.

With `COc1ccccc1-c1c[nH]c2nccc(-c3ccsc3)c12` [Example 17, 3-(2-methoxyphenyl)-4-(thiophen-3-yl)-1H-pyrrolo[2,3-b]pyridine], the IC50 (on SIK1 (SEQ ID NO: 10); in assay [1]; in assay [2]) was greater than 0.1 µM each time.

On to `CCN(CC)S(=O)(=O)c1ccccc1-c1c[nH]c2nccc(-c3ccsc3)c12` [Example 95, N,N-diethyl-2-(4-(thiophen-3-yl)-1H-pyrrolo[2,3-b]pyridin-3-yl)benzenesulfonamide], for which the IC50 (on SIK1 (SEQ ID NO: 10); in assay [1]; in assay [2]) was greater than 1 µM throughout.

Take `O=S(=O)(c1ccc(-c2c[nH]c3nccc(-c4ccsc4)c23)cc1)N1CCC1` [Example 96, 3-(4-(azetidin-1-ylsulfonyl)phenyl)-4-(thiophen-3-yl)-1H-pyrrolo[2,3-b]pyridine]: the IC50 (at SIK1 (SEQ ID NO: 10); in assay [1]; in assay [2]) was greater than 1 µM in each case.

Regarding `O=S(=O)(c1cccc(-c2c[nH]c3nccc(-c4ccsc4)c23)c1)N1CCCC1` [Example 97, 3-(3-(pyrrolidin-1-ylsulfonyl)phenyl)-4-(thiophen-3-yl)-1H-pyrrolo[2,3-b]pyridine], the IC50 (on SIK1 (SEQ ID NO: 10); in assay [1]; in assay [2]) was greater than 1 µM throughout.

As to `O=S(=O)(c1ccc(-c2c[nH]c3nccc(-c4ccsc4)c23)cc1)N1CCCC1` [Example 98, 3-(4-(pyrrolidin-1-ylsulfonyl)phenyl)-4-(thiophen-3-yl)-1H-pyrrolo[2,3-b]pyridine], the IC50 (on SIK1 (SEQ ID NO: 10); in assay [1]; in assay [2]) was greater than 1 µM each time.

On to `COc1ccccc1-c1c[nH]c2ncc(-c3ccc(C)o3)cc12` [Example 115, 3-(2-methoxyphenyl)-5-(5-methylfuran-2-yl)-1H-pyrrolo[2,3-b]pyridine], for which the values for the IC50 (on SIK1 (SEQ ID NO: 10); in assay [1]; in assay [2]) were greater than 0.1 µM, greater than 1 µM and less than 0.1 µM, respectively.

On to `Cc1ccc(-c2ccnc3[nH]cc(-c4cccc(F)c4Cl)c23)o1` [Example 116, 3-(2-chloro-3-fluorophenyl)-4-(5-methylfuran-2-yl)-1H-pyrrolo[2,3-b]pyridine], for which the IC50 on SIK1 (SEQ ID NO: 10) is greater than 1 µM; in assay [1], greater than 1 µM; in assay [2] it was greater than 0.1 µM.

Turning to `COc1c(F)cccc1-c1c[nH]c2nccc(-c3ccsc3)c12` [Example 120, 3-(3-fluoro-2-methoxyphenyl)-4-(thiophen-3-yl)-1H-pyrrolo[2,3-b]pyridine], the values for the IC50 (at SIK1 (SEQ ID NO: 10); in assay [1]; in assay [2]) were greater than 0.1 µM, greater than 0.1 µM and less than 0.1 µM, respectively.

In the case of `Oc1ccccc1-c1c[nH]c2ncc(-c3ccsc3)cc12` [Example 123, 2-(5-(thiophen-3-yl)-1H-pyrrolo[2,3-b]pyridin-3-yl)phenol], the IC50 (on SIK1 (SEQ ID NO: 10); in assay [1]; in assay [2]) was greater than 0.1 µM throughout.

For `Oc1c(F)cc(F)cc1-c1c[nH]c2ncc(-c3ccsc3)cc12` [Example 124, 2,4-difluoro-6-(5-(thiophen-3-yl)-1H-pyrrolo[2,3-b]pyridin-3-yl)phenol], the IC50 (on SIK1 (SEQ ID NO: 10); in assay [1]; in assay [2]) was greater than 0.1 µM in each case.

Take `Cc1ccc(-c2cnc3[nH]cc(-c4cccc(F)c4O)c3c2)o1` [Example 128, 2-fluoro-6-(5-(5-methylfuran-2-yl)-1H-pyrrolo[2,3-b]pyridin-3-yl)phenol]: the IC50 at SIK1 (SEQ ID NO: 10) was greater than 0.1 µM; in assay [1], greater than 0.1 µM; in assay [2] it was less than 0.1 µM.

Consider `Fc1cccc(-c2c[nH]c3ncc(-c4ccc(CN5CCOCC5)s4)cc23)c1Cl` [Example 133], for which the IC50 was greater than 1 µM on SIK1 (SEQ ID NO: 10), greater than 0.1 µM in assay [1] and less than 0.1 µM in assay [2].

In the case of `Cc1nc(Nc2cnc3[nH]cc(-c4cccc(F)c4Cl)c3c2)sc1Cl` [Example 134, 5-chloro-N-(3-(2-chloro-3-fluorophenyl)-1H-pyrrolo[2,3-b]pyridin-5-yl)-4-methylthiazol-2-amine], the values for the IC50 (at SIK1 (SEQ ID NO: 10); in assay [1]; in assay [2]) were greater than 0.1 µM, greater than 1 µM and greater than 0.1 µM, respectively.

Regarding `CN(C)S(=O)(=O)c1cccc(-c2cnc3[nH]cc(-c4cccc(F)c4Cl)c3c2)c1` [Example 135, 3-(3-(2-chloro-3-fluorophenyl)-1H-pyrrolo[2,3-b]pyridin-5-yl)-N,N-dimethylbenzenesulfonamide], the figures for the IC50 (on SIK1 (SEQ ID NO: 10); in assay [1]; in assay [2]) were greater than 0.1 µM, greater than 0.1 µM and less than 0.1 µM, respectively.

`FC1(F)CN(c2c[nH]c3ncc(-c4ccsc4)cc23)C1` [Example 136, 3-(3,3-difluoroazetidin-1-yl)-5-(thiophen-3-yl)-1H-pyrrolo[2,3-b]pyridine]: the IC50 is greater than 0.1 µM at SIK1 (SEQ ID NO: 10), greater than 0.1 µM in assay [1] and less than 0.1 µM in assay [2].

With `Fc1c(-c2c[nH]c3ncc(-c4ccsc4)cc23)ccnc1Cl` [Example 141, 3-(2-chloro-3-fluoropyridin-4-yl)-5-(thiophen-3-yl)-1H-pyrrolo[2,3-b]pyridine], the figures for the IC50 (at SIK1 (SEQ ID NO: 10); in assay [1]; in assay [2]) were greater than 1 µM, greater than 0.1 µM and less than 0.1 µM, respectively.

Take `COc1c(F)cccc1-c1c[nH]c2ncc(-c3ccc(CN4CCOCC4)s3)cc12` [Example 142, 4-((5-(3-(3-fluoro-2-methoxyphenyl)-1H-pyrrolo[2,3-b]pyridin-5-yl)thiophen-2-yl)methyl)morpholine]: the results for the IC50 (at SIK1 (SEQ ID NO: 10); in assay [1]; in assay [2]) were greater than 1 µM, less than 0.1 µM and less than 0.1 µM, respectively.

As for `COc1c(F)cccc1-c1c[nH]c2ncc(-c3ccc(C)o3)cc12` [Example 168, 3-(3-fluoro-2-methoxyphenyl)-5-(5-methylfuran-2-yl)-1H-pyrrolo[2,3-b]pyridine], the IC50 was greater than 1 µM on SIK1 (SEQ ID NO: 10), greater than 1 µM in assay [1] and less than 0.1 µM in assay [2].

Regarding `COc1c(F)cccc1-c1c[nH]c2ncc(-c3ccc(CN4CCCC4)s3)cc12` [Example 174, 3-(3-fluoro-2-methoxyphenyl)-5-(5-(pyrrolidin-1-ylmethyl)thiophen-2-yl)-1H-pyrrolo[2,3-b]pyridine], the IC50 is greater than 1 µM at SIK1 (SEQ ID NO: 10), greater than 0.1 µM in assay [1] and less than 0.1 µM in assay [2].

Take `COc1c(F)cccc1-c1c[nH]c2ncc(-c3ccc(CN4CCCCC4)s3)cc12` [Example 175, 3-(3-fluoro-2-methoxyphenyl)-5-(5-(piperidin-1-ylmethyl)thiophen-2-yl)-1H-pyrrolo[2,3-b]pyridine]: the values for the IC50 (on SIK1 (SEQ ID NO: 10); in assay [1]; in assay [2]) were greater than 1 µM, greater than 0.1 µM and less than 0.1 µM, respectively.

As for `COc1c(F)cccc1-c1c[nH]c2ncc(-c3cnc(N4CCOCC4)s3)cc12` [Example 176, 4-(5-(3-(3-fluoro-2-methoxyphenyl)-1H-pyrrolo[2,3-b]pyridin-5-yl)thiazol-2-yl)morpholine], the figures for the IC50 (at SIK1 (SEQ ID NO: 10); in assay [1]; in assay [2]) were greater than 1 µM, greater than 0.1 µM and less than 0.1 µM, respectively.

For the molecule `COc1c(F)cc(F)cc1-c1c[nH]c2ncc(-c3ccc(CN4CCCC4)s3)cc12` [Example 177, 3-(3,5-difluoro-2-methoxyphenyl)-5-(5-(pyrrolidin-1-ylmethyl)thiophen-2-yl)-1H-pyrrolo[2,3-b]pyridine], the IC50 on SIK1 (SEQ ID NO: 10) is greater than 1 µM; in assay [1], greater than 0.1 µM; in assay [2], less than 0.1 µM.

On to `COc1c(F)cc(F)cc1-c1c[nH]c2ncc(-c3ccc(CN4CCCCC4)s3)cc12` [Example 178, 3-(3,5-difluoro-2-methoxyphenyl)-5-(5-(piperidin-1-ylmethyl)thiophen-2-yl)-1H-pyrrolo[2,3-b]pyridine], for which the IC50 on SIK1 (SEQ ID NO: 10) was greater than 1 µM; in assay [1], greater than 0.1 µM; in assay [2], less than 0.1 µM.

In the case of `COc1c(F)cc(F)cc1-c1c[nH]c2ncc(-c3cnc(N4CCOCC4)s3)cc12` [Example 179, 4-(5-(3-(3,5-difluoro-2-methoxyphenyl)-1H-pyrrolo[2,3-b]pyridin-5-yl)thiazol-2-yl)morpholine], the IC50 on SIK1 (SEQ ID NO: 10) was greater than 1 µM; in assay [1], greater than 0.1 µM; in assay [2] it was less than 0.1 µM.

As for `COc1c(F)cccc1-c1c[nH]c2ncc(-c3cccc(S(=O)(=O)N(C)C(C)(C)C)c3)cc12` [Example 180], the IC50 on SIK1 (SEQ ID NO: 10) was greater than 1 µM; in assay [1], greater than 0.1 µM; in assay [2] it was less than 0.1 µM.
